Assay results published in PMC9964651, “Discovery of Ureido-Based Apcin Analogues as Cdc20-specific Inhibitors against Cancer” (Pharmaceuticals, 2023).
Where two headings read alike, the source gives them in different places.

Experiments:
Hepg2 = test: In vitro antiproliferative assay (CCK-8); settings: read-out: IC50 ± SD Hepg2
Method: (§1) Hela and MDA-MB-132 cells were grown in DMEM (Gibco) containing 10% FBS and 1% double antibody (penicillin 100 U/mL, streptomycin 100 μg/mL, Solarbio). […] All cell lines were purchased from the Xiangya Cell Bank, Central South University, Changsha, China, and incubated at 37 °C with 5% CO2 in a humidified atmosphere. […] Cytotoxicity assay was assessed using CCK-8 methods. The cells were seeded in a 96-well plate (2 × 10^3–3 × 10^3 cells/well), the 96-well plate was incubated at 37 °C with 5% CO2 in a humidified atmosphere, and the cells were grown in a monolayer; the original culture was discarded. A total of 100 μL of drug-containing medium with a specific concentration gradient was added and then cultivated for 48 h; 10 μL/well of CCK-8 solution was added, put in an incubator, and incubated for 1 h and read with a multi-function microplate reader at a wavelength of 450 nm. The inhibition rate was calculated, and the IC50 results were calculated by GraphPad Prism 7 software. The experiment was repeated three times.

Mcf-7 = test: In vitro antiproliferative assay (CCK-8); settings: read-out: IC50 ± SD Mcf-7
Method: as §1

Hela = test: In vitro antiproliferative assay (CCK-8); format: cell-based, human; settings: CCK-8, 48 h, mean ± SD
Source text: The experiment was repeated three times.

Mda-mb-231 = test: In vitro antiproliferative assay (CCK-8); settings: read-out: IC50 ± SD Mda-mb-231
Method: as §1

four cancer-cell lines = test: In vitro antiproliferative assay (CCK-8), cell line not given; settings: Homo sapiens, read-out: IC50 (antiproliferative activity)

Compound	IC50 (Hepg2; CCK-8, 48 h, mean ± SD)	IC50 (Mcf-7; CCK-8, 48 h, mean ± SD)	IC50 (Hela)	IC50 (Mda-mb-231; CCK-8, 48 h, mean ± SD)	IC50 (Hepg2; Homo sapiens, HepG2, 48 h)	IC50 (Mcf-7; Homo sapiens, MCF7, 48 h)	IC50 (four cancer-cell lines)	IC50 (Hela; Homo sapiens, HeLa)	IC50 (Mda-mb-231; Homo sapiens, MDA-MB-231, 48 h)
1-phenethyl-3-(2,2,2-trichloro-1-((2,6-dichloropyrimidin-4-yl)amino)ethyl)urea [Compound 17]	> 100 µM	> 100 µM	60 ± 7.55 µM	25.2 ± 10.8 µM	–	–	–	–	–
1-phenethyl-3-(2,2,2-trichloro-1-((4,6-difluoropyrimidin-2-yl)amino)ethyl)urea [Compound 22]	26.13 ± 0.05 µM	24.8 ± 9.49 µM	31.9 ± 3.29 µM	27.81 ± 0.17 µM	–	–	–	–	–
Cc1ncc([N+](=O)[O-])n1CCNC(=O)NC(Nc1ncccn1)C(Cl)(Cl)Cl (centres unmarked) [Compound 1, 1-(2-(2-methyl-5-nitro-1H-imidazol-1-yl)ethyl)-3-(2,2,2-trichloro-1-(pyrimidin-2-ylamino)ethyl)urea]	–	–	–	–	> 100 µM	> 100 µM	> 80 µM	> 100 µM	> 100 µM
O=C(NCCc1ccccc1)NC(Nc1ncccn1)C(Cl)(Cl)Cl (centres unmarked) [Compound 2, 1-phenethyl-3-(2,2,2-trichloro-1-(pyrimidin-2-ylamino)ethyl)urea]	–	–	–	–	66.3 ± 1.91 µM	79.3 ± 20.3 µM	–	86.7 ± 4.25 µM	> 100 µM
O=C(NC1CCCCC1)NC(Nc1ncccn1)C(Cl)(Cl)Cl (centres unmarked) [Compound 3, 1-cyclohexyl-3-(2,2,2-trichloro-1-(pyrimidin-2-ylamino)ethyl)urea]	–	–	–	–	> 100 µM	> 100 µM	> 80 µM	> 100 µM	> 100 µM
O=C(NCCN1CCOCC1)NC(Nc1ncccn1)C(Cl)(Cl)Cl (centres unmarked) [Compound 4, 1-(2-morpholinoethyl)-3-(2,2,2-trichloro-1-(pyrimidin-2ylamino)ethyl)urea]	–	–	–	–	> 100 µM	> 100 µM	> 80 µM	> 100 µM	> 100 µM
CCNC(=O)NC(Nc1ncccn1)C(Cl)(Cl)Cl (centres unmarked) [Compound 5, 1-ethyl-3-(2,2,2-trichloro-1-(pyrimidin-2-ylamino)ethyl)urea]	–	–	–	–	> 100 µM	> 100 µM	> 80 µM	> 100 µM	> 100 µM
O=C(NC(Nc1ncccn1)C(Cl)(Cl)Cl)NS(=O)(=O)c1ccccc1 (centres unmarked) [Compound 6, N-((2,2,2-trichloro-1-(pyrimidin-2-ylamino)ethyl)carbamoyl)benzenesulfonamide]	–	–	–	–	> 100 µM	> 100 µM	> 80 µM	> 100 µM	> 100 µM
O=C(NCCc1ccccc1)NC(Nc1nccc(C(F)(F)F)n1)C(Cl)(Cl)Cl (centres unmarked) [Compound 7, 1-phenethyl-3-(2,2,2-trichloro-1-((4-(trifluoromethyl)pyrimidin-2-yl)aminno16)ethyl)urea]	–	–	–	–	20.7 ± 3.6 µM	21.3 ± 4.52 µM	< 40 µM	34.2 ± 5.16 µM	34.7 ± 1.23 µM
Cc1ccc(S(=O)(=O)NC(=O)NC(Nc2nccc(C(F)(F)F)n2)C(Cl)(Cl)Cl)cc1 (centres unmarked) [Compound 8, 4-methyl-N-((2,2,2-trichloro-1-((4-(trifluoromethyl)pyrimidin-2-yl)amino)ethyl)carbamoyl)benzenesulfonamide]	–	–	–	–	> 100 µM	> 100 µM	–	> 100 µM	> 100 µM
O=C(NCCc1ccccc1)NC(Nc1ncc(Cl)cn1)C(Cl)(Cl)Cl (centres unmarked) [Compound 9, 1-phenethyl-3-(2,2,2-trichloro-1-((5-chloropyrimidin-2-yl)amino)ethyl)urea]	–	–	–	–	> 100 µM	> 100 µM	–	> 100 µM	> 100 µM
O=C(NC(Nc1ncc(Cl)cn1)C(Cl)(Cl)Cl)NS(=O)(=O)c1ccccc1 (centres unmarked) [Compound 10, N-((2,2,2-trichloro-1-((5-chloropyrimidin-2yl)amino)ethyl)carbamoyl)benzenesul fonamide]	–	–	–	–	> 100 µM	> 100 µM	–	> 100 µM	> 100 µM
Cc1c(Cl)nc(NC(NC(=O)NS(=O)(=O)c2ccccc2)C(Cl)(Cl)Cl)nc1Cl (centres unmarked) [Compound 11, N-((2,2,2-trichloro-1-((4,6-dichloro-5-methylpyrimidin-2yl)amino)ethyl)carbamoyl)benzenesulfonamide]	–	–	–	–	> 100 µM	> 100 µM	–	> 100 µM	> 100 µM
Cc1c(Cl)nc(NC(NC(=O)NCCc2ccccc2)C(Cl)(Cl)Cl)nc1Cl (centres unmarked) [Compound 12, 1-phenethyl-3-(2,2,2-trichloro-1-((4,6-dichloro-5-methylpyrimidin-2-yl)amino)ethyl)urea]	–	–	–	–	27.1 ± 5.27 µM	27.7 ± 2.13 µM	–	43.5 ± 20.4 µM	> 100 µM
